From patent US8828983B2, “Macrocycles as factor XIa inhibitors” (Bristol-Myers Squibb Company, priority 2010, dated 2014) come the findings set out here.

One may read the Ki as a measure of affinity in units of concentration, obtained from inhibition or displacement. A high value points to weaker binding.

Chain of purified human Factor XIa (P03951 388-625): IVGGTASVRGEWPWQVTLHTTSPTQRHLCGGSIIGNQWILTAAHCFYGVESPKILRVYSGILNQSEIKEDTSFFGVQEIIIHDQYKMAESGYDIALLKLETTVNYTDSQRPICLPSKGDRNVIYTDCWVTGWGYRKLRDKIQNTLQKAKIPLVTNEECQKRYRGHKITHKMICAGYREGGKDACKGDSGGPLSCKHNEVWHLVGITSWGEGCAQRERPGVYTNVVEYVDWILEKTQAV
Chain of purified human Factor XIa (P03951 19-387 partner): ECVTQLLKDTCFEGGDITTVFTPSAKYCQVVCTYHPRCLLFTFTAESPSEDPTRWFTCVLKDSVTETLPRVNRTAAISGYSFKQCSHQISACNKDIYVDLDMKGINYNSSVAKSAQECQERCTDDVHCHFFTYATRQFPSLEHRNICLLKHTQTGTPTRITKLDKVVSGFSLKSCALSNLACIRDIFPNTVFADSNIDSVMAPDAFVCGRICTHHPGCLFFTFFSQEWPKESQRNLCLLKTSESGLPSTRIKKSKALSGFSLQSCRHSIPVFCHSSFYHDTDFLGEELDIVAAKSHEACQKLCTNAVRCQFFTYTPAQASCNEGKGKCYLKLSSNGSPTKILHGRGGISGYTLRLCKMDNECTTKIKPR

System in one data set: not given
Assay: not given
Conditions: from C=CCCCc1ccccc1-c1cn(COCC[Si](C)(C)C)c([C@H](CC=C)NC(=O)OC(C)(C)C)n1; rcm bond; 12-membered ring; Grubbs II (0.4 eq)/pTsOH.H2O; DCM; 0.97 mM; 40.0 °C.
Compound `CC(C)(C)OC(=O)N[C@H]1CC=CCCCc2ccccc2-c2cn(COCC[Si](C)(C)C)c1n2` showed a ring closure, isolated yield of 45.3%.

The same data set, now with this note: from COC(=O)Nc1ccc(-c2cnc(C(Cc3ccc(F)c(CCC(=O)O)n3)NC(=O)OC(C)(C)C)o2)c(N)c1; amide bond; 14-membered ring; BOP/DMAP/DIEA; DCM/DMF; 1.1 mM; 25.0 °C; 16.0 h.
`COC(=O)Nc1ccc2c(c1)NC(=O)CCc1nc(ccc1F)CC(NC(=O)OC(C)(C)C)C1=NC=C2O1` (centres unmarked) came in with a ring closure, isolated yield of 23%.

The target of a further data set is purified human Factor XIa (Homo sapiens (Human), UniProt P03951). Description: Factor XIa assay (chromogenic substrate S-2366 hydrolysis, Ki). Type of data set: biochemical. Conditions: substrate S-2366, pH 7.4. Here is the method:
The effectiveness of compounds of the present invention as inhibitors of the coagulation Factors XIa, VIIa, IXa, Xa, XIIa, plasma kallikrein or thrombin, can be determined using a relevant purified serine protease, respectively, and an appropriate synthetic substrate. The rate of hydrolysis of the chromogenic or fluorogenic substrate by the relevant serine protease was measured both in the absence and presence of compounds of the present invention. […] A decrease in the rate of absorbance or fluorescence change in the presence of inhibitor is indicative of enzyme inhibition. Such methods are known to one skilled in the art. The results of this assay are expressed as the inhibitory constant, Ki.
Factor XIa determinations were made in 50 mM HEPES buffer at pH 7.4 containing 145 mM NaCl, 5 mM KCl, and 0.1% PEG 8000 (polyethylene glycol; JT Baker or Fisher Scientific). Determinations were made using purified human Factor XIa at a final concentration of 25-200 pM (Haematologic Technologies) and the synthetic substrate S-2366 (pyroGlu-Pro-Arg-pNA; CHROMOGENIX® or AnaSpec) at a concentration of 0.0002-0.001 M.
Values of Ki were determined by allowing the protease to react with the substrate in the presence of the inhibitor. Reactions were allowed to go for periods of 20-180 minutes (depending on the protease) and the velocities (rate of absorbance or fluorescence change versus time) were measured. The following relationships were used to calculate Ki values: (vo−vs)/vs=I/(Ki(1+S/Km)) for a competitive inhibitor with one binding site; or vs/vo=A+((B−A)/1+((IC50/(I)0))); and Ki=IC50/(1+S/Km) for a competitive inhibitor where: […]
On to `O=C(/C=C/c1cc(Cl)ccc1-n1cnnn1)N[C@H]1C/C=C/CCOc2ccccc2-c2c[nH]c1n2` [Example 1, (E)-3-(5-Chloro-2-tetrazol-1-yl-phenyl)-N-(E)-(S)-8-oxa-16,18-diaza-tricyclo[13.2.1.0^2,7]octadeca-1(17),2,4,6,11,15(18)-hexaen-14-yl-acrylamide], for which the Ki amounted to 2980 nM.

Consider `COC(=O)Nc1ccc2c(c1)NC(=O)CCCC[C@H](NC(=O)/C=C/c1cc(Cl)ccc1-n1cnnn1)c1nc-2c[nH]1` [Example 10, {(S)-14-[(E)-3-(5-Chloro-2-tetrazol-1-yl-phenyl)-acryloylamino]-9-oxo-8,16,18-triaza-tricyclo[13.2.1.0^2,7]octadeca-1(17),2,4,6,15(18)-pentaen-5-yl}-carbamic acid methyl ester], for which the inhibitory constant (Ki) was under 5 nM.

Compound `COC(=O)Nc1ccc2c(c1)NC[C@@H]1CCN(C1)C(=O)C[C@H](NC(=O)/C=C/c1cc(Cl)ccc1-n1cnnn1)c1nc-2c[nH]1` [Example 86] registered a Ki of 2390 nM.

In turn, `COC(=O)Nc1ccc2c(c1)CCCCc1cccc(c1)C[C@H](NC(=O)/C=C/c1cc(Cl)ccc1-n1cnnn1)c1nc-2c(Cl)[nH]1` [Example 102] gave a Ki of 8.16 nM.

On to `COC(=O)Nc1ccc2c(c1)CCCCc1ccc(cc1)C[C@H](NC(=O)/C=C/c1cc(Cl)ccc1-n1cnnn1)c1nc-2c[nH]1` [Example 111], for which affinity was put at a Ki of 71 nM.

The compound `COC(=O)Nc1ccc2c(c1)NC(=O)CCc1nc(ccc1F)CC(NC(=O)/C=C/c1cc(Cl)ccc1C(C)=O)c1nc-2c[nH]1` (centres unmarked) [Example 140, Methyl N-{3-[(2E)-3-(2-acetyl-5-chlorophenyl)prop-2-enamido]-19-fluoro-15-oxo-5,14,22,23-tetraazatetracyclo[16.3.1.1^4,7.0^8,13]tricosa-1(22),4(23),6,8,10,12,18,20-octaen-11-yl}carbamate] yielded a Ki of under 5 nM.

In turn, `COC(=O)Nc1ccc2c(c1)NC(=O)CCc1nc(ccc1F)CC(NC(=O)c1c(F)cc(C)cc1F)c1nc-2c[nH]1` (centres unmarked) [Example 142, Methyl N-{3-[(2,6-difluoro-4-methylbenzene)amido]-19-fluoro-15-oxo-5,14,22,23-tetraazatetracyclo[16.3.1.1^4,7.0^8,13]tricosa-1(22),4(23),6,8,10,12,18,20-octaen-11-yl}carbamate] returned a Ki of 145 nM.

Take `COC(=O)Nc1ccc2c(c1)NC(=O)CCc1nc(ccc1F)CC(NC(=O)[C@H]1CC[C@H](C)CC1)c1nc-2c[nH]1` (some centres unmarked) [Example 143, Methyl N-{19-fluoro-3-[(4-methylcyclohexane)amido]-15-oxo-5,14,22,23-tetraazatetracyclo[16.3.1.1^4,7.0^8,13]tricosa-1(22),4(23),6,8,10,12,18,20-octaen-11-yl}carbamate]: the affinity corresponds to a Ki of 1310 nM.

Regarding `COC(=O)Nc1ccc2c(c1)NC(=O)CCc1nc(ccc1F)CC(NC(=O)/C=C/c1cc(Cl)ccc1-n1cnnn1)c1nc-2cn1C` (centres unmarked) [III-33], the Ki is 103 nM.
